Results from patent publication US8791273B2, “4R,5S-enantiomer of 2-(5-methyl-2-oxo-4-phenyl-pyrrolidin-1-yl)-acetamide with nootropic activity” (JSC Grindeks, priority 2009, dated 2014).
Marks after values point to notes of the source that are not given here.

Experiments:
ICR male mice = experiment: Passive avoidance test (learning and memory); format: in vivo; details: for Latent time (retention latency to cross into the dark compartment): intraperitoneally 46 μmol/kg 60 min before the training trial, retention test 24 hours later, cut-off 300 s, mean±S.E.M, n≧10
Experimental: Passive avoidance test was performed in a shuttle-box apparatus (Ugo Basile, Italy) with two communicating compartments of equal size (20×10×16 cm) and a stainless steel grid floor (bars spaced 0.7 cm apart). The right-hand compartment (shock compartment) was painted black to obtain a dark chamber. The left-hand compartment was painted white and illuminated by a bulb (100 W) installed on the top of plexiglass cover. These compartments were separated by a guillotine door (5×4 cm). On day 1 (training trial), mice were placed in the illuminated compartment and the door between the two compartments was opened 60 s later. When mice entered the dark compartment with all four feet, the door automatically closed and an inescapable electrical foot shock (0.1 mA; 3 s) was delivered through the grid floor. Latency to cross into the dark compartment (training latency) was automatically measured. The retention test was performed 24 hours later (day 2). Mice were placed into the light (safe) compartment, with access to the dark one (within 10 s) for a period of 300 s (cut-off time). The latency to cross into the dark compartment with all four feet was automatically measured (retention latency).
Effects of 2-(4R-phenyl-2-oxopyrrolidin-1-yl)acetamide), racemic 2-(5-methyl-2-oxo-4-phenyl-pyrrolidin-1-yl)-acetamide and 2-(5S-methyl-2-oxo-4R-phenyl-pyrrolidin-1-yl)-acetamide on retention of passive avoidance response (memory) in ICR male mice.
The compounds were administered intraperitoneally at the dose of 46 μmol/kg 60 min before the training trial (day 1). The saline control group was run concurrently with the drug-treated groups. The statistical analysis was performed by Student's t-test. Data represent mean±S.E.M *p<0.05, ^#p<0.05, ^$p<0.05 versus saline control group, 2-(4R-phenyl-2-oxopyrrolidin-1-yl)acetamide-treated group and racemic2-(5-methyl-2-oxo-4-phenyl-pyrrolidin-1-yl)-acetamide-treated group, respectively; n≧10

Row | SMILES | Latent time (retention latency to cross into the dark compartment) (ICR male mice) | melting point | effect on memory in the passive avoidance task (ICR male mice; dose of 46 μmol/kg, Student's t-test)
1 | CC1C(c2ccccc2)CC(=O)N1CC(N)=O (racemic) [2-(5-methyl-2-oxo-4-phenyl-pyrrolidin-1-yl)-acetamide racemic, 2-(5-methyl-2-oxo-4-phenyl-pyrrolidin-1-yl)-acetamide] | 74.2 ± 19.9 s |  | 
2 | NC(=O)CN1C[C@@H](c2ccccc2)CC1=O [2-(4R-phenyl-2-oxopyrrolidin-1-yl)acetamide, reference compound] | 94.9 ± 27.6 s |  | 
3 | C[C@H]1[C@@H](c2ccccc2)CC(=O)N1CC(N)=O [2-(5S-methyl-2-oxo-4R-phenyl-pyrrolidin-1-yl)-acetamide] | 170.6 ± 41.9* ^#$ s | 169 to 171 °C | statistically significant effect on memory
